From patent publication US8822449B2, “Substituted aminoindanes and analogs thereof, and the pharmaceutical use thereof” (Sanofi, priority 2008, dated 2014) come the findings set out here.

In this assay the target is T1, sodium-proton exchanger of subtype 3 (NHE3) (Homo sapiens, UniProt P48764).
T1 construct: expressed in transfected cells
T1 sequence (P48764 26-834): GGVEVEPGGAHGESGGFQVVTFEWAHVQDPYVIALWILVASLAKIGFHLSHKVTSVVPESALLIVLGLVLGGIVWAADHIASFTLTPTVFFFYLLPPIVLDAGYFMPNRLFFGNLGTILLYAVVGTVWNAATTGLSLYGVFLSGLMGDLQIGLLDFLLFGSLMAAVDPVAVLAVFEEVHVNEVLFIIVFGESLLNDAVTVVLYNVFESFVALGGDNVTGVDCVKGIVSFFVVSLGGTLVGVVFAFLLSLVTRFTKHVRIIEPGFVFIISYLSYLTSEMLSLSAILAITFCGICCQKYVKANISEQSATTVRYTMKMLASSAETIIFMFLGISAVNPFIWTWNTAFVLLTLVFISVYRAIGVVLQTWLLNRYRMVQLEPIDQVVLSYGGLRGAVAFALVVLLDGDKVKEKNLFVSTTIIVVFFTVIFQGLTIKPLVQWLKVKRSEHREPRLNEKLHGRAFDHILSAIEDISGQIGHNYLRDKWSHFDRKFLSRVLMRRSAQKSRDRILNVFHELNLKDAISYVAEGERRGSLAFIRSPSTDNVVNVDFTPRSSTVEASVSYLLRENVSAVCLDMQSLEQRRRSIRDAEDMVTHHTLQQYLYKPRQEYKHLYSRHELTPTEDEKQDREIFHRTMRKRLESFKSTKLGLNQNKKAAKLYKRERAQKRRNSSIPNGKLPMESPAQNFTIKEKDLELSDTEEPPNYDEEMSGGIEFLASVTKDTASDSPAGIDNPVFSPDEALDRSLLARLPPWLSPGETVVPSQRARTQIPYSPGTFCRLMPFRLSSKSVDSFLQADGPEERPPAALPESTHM
Description: Recovery of intracellular pH (pHi) after acidification in LAP1 cells stably expressing NHE3 (BCECF fluorescence, FLIPR). The class given is cell-based. As to conditions: LAP1 cells stably expressing NHE3; pH recovery after acidification; range 1 is % inhibition at 10 μM; read-out: Activity range (inhibitory effect on NHE3).
Consider `CN1CCN([C@H]2Cc3c(Cl)cc(Cl)cc3[C@@H]2Oc2ccc(S(C)(=O)=O)cc2)CC1` [Example 306, 1-[trans-(1S,2S)-4,6-dichloro-1-(4-methanesulfonylphenoxy)indan-2-yl]-4-methylpiperazine], for which the IC50 lay in the range of 1000 to 10000 nM. Same read-out and setting: the value for `CS(=O)(=O)c1ccc(O[C@H]2c3cc(Cl)cc(Cl)c3C[C@@H]2CN2CCCC2)cc1` (racemic) [Example 280, trans-4,6-dichloro-1-(4-methylsulfonyl-phenyloxy)-2-pyrrolidinylmethylindane] was 1000 to 10000 nM. Turning to `CN1CCN(c2cc(O[C@H]3c4cc(Cl)cc(Cl)c4C[C@@H]3N3CC[C@@H](O)C3)ccc2Cl)C1=O` [Example 311, 1-{2-chloro-5-[(1S,2S)-4,6-dichloro-2-((R)-3-hydroxypyrrolidin-1-yl)indan-1-yloxy]phenyl}-3-methylimidazolidin-2-one], the inhibition at 10 µM lay within 20 to 50%.

Consider `CS(=O)(=O)c1ccc(O[C@H]2c3cc(Cl)cc(Cl)c3C[C@@H]2N2CC[C@@H](F)C2)cc1` [Example 100, (R)-1-[trans-(1S,2S)-4,6-dichloro-1-(4-methanesulfonylphenoxy)indan-2-yl]-3-fluoropyrrolidine], for which the IC50 is less than 1000 nM. Consider `N#Cc1ccc(O[C@@H]2c3ccccc3C[C@H]2N2CCC[C@@H](N)C2)cc1F` (racemic) [Example 522, 4-[rac-trans-(1,2)-2-((R)-3-aminopiperidin-1-yl)indan-1-yloxy]-2-fluorobenzonitrile], for which the IC50 is 1000 to 10000 nM. For `N#Cc1cc(Cl)ccc1O[C@H]1c2ccccc2CC[C@@H]1N1CCOCC1` (racemic) [Example 585, 5-chloro-2-(rac-trans-(1,2)-2-morpholin-4-yl-1,2,3,4-tetrahydronaphthalen-1-yloxy)benzonitrile], the inhibition at 10 µM fell in the range of 20 to 50%. For the compound `NS(=O)(=O)c1cc(Cl)c(O[C@H]2c3ccccc3C[C@@H]2N2CCCC2)c(Cl)c1` (racemic) [Example 402, 3,5-dichloro-4-(rac-trans-(1,2)-2-pyrrolidin-1-ylindan-1-yloxy)benzenesulfonamide], the IC50 was 1000 to 10000 nM. Still for that read-out and setting: next, `Cc1c(O[C@H]2c3cc(Cl)cc(F)c3C[C@@H]2N2CC[C@@H](O)C2)ccc(-n2c(C)nnc2C)c1C` [Example 141, (R)-1-{trans-(1S,2S)-6-chloro-1-[4-(3,5-dimethyl-[1,2,4]triazol-4-yl)-2,3-dimethylphenoxy]-4-fluoroindan-2-yl}pyrrolidin-3-ol]: less than 1000 nM. Regarding `CS(=O)(=O)c1ccc(O[C@H]2c3ccccc3C[C@@H]2CN2CCOCC2)cc1` (racemic) [Example 487, 4-[1-(4-methanesulfonylphenoxy)indan-2-ylmethyl]morpholine], the inhibition at 10 µM lay in the range of 20 to 50%. For `O=S(=O)(NCC(F)(F)F)c1ccc(O[C@@H]2c3ccccc3C[C@H]2N2CCCC2)cc1` (racemic) [Example 469, 4-(rac-trans-(1,2)-2-pyrrolidin-1-ylindan-1-yloxy)-N-(2,2,2-trifluoroethyl)benzenesulfonamide], the IC50 was 1000 to 10000 nM. For the compound `N[C@H]1CCCN([C@H]2CCc3ccccc3[C@@H]2Oc2cccc(Cl)c2)C1` (racemic) [Example 165, (S)-1-[rac-trans-(1,2)-1-(3-chlorophenoxy)-1,2,3,4-tetrahydronaphthalen-2-yl]piperidin-3-ylamine], the inhibition at 10 µM is 20 to 50%. Still for that read-out and setting: the value for `Cc1noc(C)c1-c1cc(O[C@H]2c3ccccc3C[C@@H]2N2CCCC2)ccc1F` [Example 489, 4-[2-fluoro-5-(trans-(1S,2S)-2-pyrrolidin-1-ylindan-1-yloxy)phenyl]-3,5-dimethylisoxazole] was 20 to 50%. Turning to `Cc1nnnn1-c1ccc(O[C@H]2c3cc(Cl)cc(Cl)c3C[C@@H]2N2CC[C@@H](O)C2)cc1` [Example 112, (R)-1-{(1S,2S)-4,6-dichloro-1-[4-(5-methyltetrazol-1-yl)phenoxy]indan-2-yl}pyrrolidin-3-ol], the IC50 fell in the range of 1000 to 10000 nM. For `CC(=O)Nc1cccc(O[C@H]2c3cc(Cl)ccc3C[C@@H]2N2CCNCC2)c1` (racemic) [Example 657, N-[3-(rac-trans-(1,2)-6-chloro-2-piperazin-1-ylindan-1-yloxy)phenyl]acetamide], the IC50 fell in the range of 1000 to 10000 nM. In the case of `COCCc1ccc(O[C@H]2c3ccccc3CC[C@@H]2N2CCC[C@H](N)C2)cc1` (racemic) [Example 202, (S)-1-{rac-trans-(1,2)-1-[4-(2-methoxyethyl)phenoxy]-1,2,3,4-tetrahydronaphthalen-2-yl}piperidin-3-ylamine], the inhibition at 10 µM was 20 to 50%. With `NC(=O)c1cccc(O[C@@H]2c3ccccc3C[C@H]2N2CCC[C@@H](N)C2)c1` (racemic) [Example 411, 3-[rac-trans-(1,2)-2-((R)-3-aminopiperidin-1-yl)indan-1-yloxy]benzamide], the IC50 was less than 1000 nM. `Cc1cc(C)c2cccnc2c1O[C@H]1c2ccccc2CC[C@@H]1N1CCOCC1` (racemic) [Example 573, 5,7-dimethyl-8-(rac-trans-(1,2)-2-morpholin-4-yl-1,2,3,4-tetrahydronaphthalen-1-yloxy)quinoline]: the inhibition at 10 µM was in the range of 20 to 50%.

`N[C@@H]1CCCN([C@H]2CCc3ccccc3[C@@H]2Oc2ccc(F)c3cccnc23)C1` (racemic) [Example 79, (R)-1-[rac-trans-(1,2)-1-(5-fluoroquinolin-8-yloxy)-1,2,3,4-tetrahydronaphthalen-2-yl]piperidin-3-ylamine]: the IC50 is less than 1000 nM. For `N[C@H]1CCCN([C@H]2CCc3ccccc3[C@@H]2Oc2ccc(-n3ccnc3)cc2)C1` (racemic) [Example 180, (S)-1-[rac-trans-(1,2)-1-(4-imidazol-1-ylphenoxy)-1,2,3,4-tetrahydronaphthalen-2-yl]piperidin-3-ylamine], the inhibition at 10 µM is 20 to 50%.

As for `N[C@@H]1CCCN([C@@H]2Cc3ccccc3[C@H]2Oc2ccc(F)cc2F)C1` (racemic) [Example 33, (R)-1-[rac-trans-(1,2)-1-(2,4-difluorophenoxy)indan-2-yl]piperidin-3-ylamine], the IC50 is 1000 to 10000 nM.

As for `O=C1COC(=O)N1c1ccc(O[C@H]2c3cc(Cl)cc(Cl)c3C[C@@H]2N2CC[C@@H](O)C2)c(Cl)c1` [Example 424, 3-{3-chloro-4-[(1S,2S)-4,6-dichloro-2-((R)-3-hydroxypyrrolidin-1-yl)indan-1-yloxy]phenyl}oxazolidine-2,4-dione], the IC50 was less than 1000 nM.

Regarding `N[C@H]1CCCN([C@@H]2Cc3ccccc3[C@H]2Oc2ccc(Br)cc2-c2cc[nH]n2)C1` (racemic) [Example 204, (S)-1-{rac-trans-(1,2)-1-[4-bromo-2-(1H-pyrazol-3-yl)phenoxy]indan-2-yl}piperidin-3-ylamine], the IC50 lay in the range of 1000 to 10000 nM. Same read-out and setting: next, `N[C@@H]1CCCN([C@@H]2Cc3ccccc3[C@H]2Oc2ccc(N3CCNCC3)cc2)C1` (racemic) [Example 76, (R)-1-[rac-trans-(1,2)-1-(4-piperazin-1-ylphenoxy)indan-2-yl]piperidin-3-ylamine]: 1000 to 10000 nM. Still for that read-out and setting: the value for `c1ccc2c(c1)C[C@@H](N1C[C@H]3CNC[C@H]3C1)[C@@H]2Oc1ccc(N2CCNCC2)cc1` (racemic) [Example 17, 2-[rac-trans-(1,2)-1-(4-piperazin-1-ylphenoxy)indan-2-yl]octahydropyrrolo[3,4-c]pyrrole] was 1000 to 10000 nM; that for `N[C@@H]1CCCN([C@@H]2Cc3ccccc3[C@H]2Oc2cccc3[nH]ccc23)C1` (racemic) [Example 30, (R)-1-[rac-trans-(1,2)-1-(1H-indol-4-yloxy)indan-2-yl]piperidin-3-ylamine] was 1000 to 10000 nM; that for `N[C@@H]1CCCN([C@H]2CCc3ccccc3[C@@H]2Oc2ccc(-n3ccnc3)cc2)C1` (racemic) [Example 71, (R)-1-[rac-trans-(1,2)-1-(4-imidazol-1-ylphenoxy)-1,2,3,4-tetrahydronaphthalen-2-yl]piperidin-3-ylamine] was 1000 to 10000 nM. On the same count and under the same terms, the value for `CN(C1CCNCC1)[C@@H]1Cc2ccccc2[C@H]1Oc1ccc(N2CCNCC2)cc1` (racemic) [Example 630, methyl-[rac-trans-(1,2)-1-(4-piperazin-1-ylphenoxy)indan-2-yl]piperidin-4-ylamine] was 1000 to 10000 nM; that for `COc1cc(Cl)cc(O[C@H]2c3ccccc3CC[C@@H]2N2CCC[C@H](N)C2)c1` (racemic) [Example 163, (S)-1-[rac-trans-(1,2)-1-(3-chloro-5-methoxyphenoxy)-1,2,3,4-tetrahydronaphthalen-2-yl]piperidin-3-ylamine] was 1000 to 10000 nM.

As for `N#Cc1ccc(O[C@@H]2c3ccccc3C[C@H]2N2CCC(N)C2)c(Cl)c1` (mixture of isomers) [Example 543, 4-[rac-trans-(1,2)-2-(3-aminopyrrolidin-1-yl)indan-1-yloxy]-3-chlorobenzonitrile], the IC50 is 1000 to 10000 nM. Consider `NC(=O)c1cccc(O[C@@H]2c3ccccc3C[C@H]2N2CCC[C@H](N)C2)c1` (racemic) [Example 413, 3-[rac-trans-(1,2)-2-((S)-3-aminopiperidin-1-yl)indan-1-yloxy]benzamide], for which the IC50 fell in the range of 1000 to 10000 nM.
